Laboratory results taken from publication PMC12040169 (PLOS Biology, 2025).

Assay: in vitro
Conditions: human, hela cells, % viability

## FC(F)(F)c1ccnc(OCc2ccc(-c3ccccc3)cc2)c1 [CBK115826]
  viability at 28.5 h, 10 µM: 108%

## Cc1ccc(OCCOc2cccc(/C=N/n3cnnc3)c2)cc1 [CBK263028]
  viability at 28.5 h, 10 µM: 111%

## CC(C)c1nsc(NS(=O)(=O)Cc2ccccc2)n1 [CBK051188]
  viability at 28.5 h, 10 µM: 112%

## O=C1C2C3C=CC(C3)C2C(=O)N1CCN1CCN(S(=O)(=O)/C=C/c2ccccc2)CC1 (centres unmarked) [CBK263663]
  viability at 28.5 h, 10 µM: 88.4%

## CCOc1ccccc1C(=O)N1CCC(c2cc(C(=O)NC(C)C)c3ccccc3n2)C1 (centres unmarked) [CBK285918]
  viability at 28.5 h, 10 µM: 106%

## Cc1sc2nc(SCC(=O)NCCO)nc(N)c2c1C [CBK264423]
  viability at 28.5 h, 10 µM: 109%

## CCc1nc2ccc(C(=O)N(C)Cc3ccco3)cn2c1N(C)C(=O)c1ccncc1 [CBK145479]
  viability at 28.5 h, 10 µM: 90.9%

## CC(C)Nc1cc(OC2CCN(C)CC2)ncn1 [CBK113280]
  viability at 28.5 h, 10 µM: 83.6%

## O=C(CCN1CCN(CCO)CC1)Nc1cccc(Br)c1 [CBK058502]
  viability at 28.5 h, 10 µM: 102%

## COc1ccc(C(=O)Nc2ccccc2N2CCN(C)CC2)c(OC)c1 [CBK269763]
  viability at 28.5 h, 10 µM: 90.4%

## COC(=O)c1nn(C(=O)N(C)C)c(C)c1Br [CBK005077]
  viability at 28.5 h, 10 µM: 88.5%

## CNc1cc(N2CCN(S(=O)(=O)c3ccc(C)cc3)CC2)ccc1[N+](=O)[O-] [CBK266005]
  viability at 28.5 h, 10 µM: 104%

## O=C(Nc1sc2c(c1C(=O)NCC1CCCO1)CCCC2)c1ccccc1[N+](=O)[O-] (centres unmarked) [CBK264608]
  viability at 28.5 h, 10 µM: 102%

## O=C1CC(c2ccc(F)cc2)CC(=O)C1=CNCCN1CCN(C(=S)Nc2ccccc2)CC1 (centres unmarked) [CBK264784]
  viability at 28.5 h, 10 µM: 94.1%

## Cc1nnc(SCC(=O)N/N=C/c2coc3ccccc3c2=O)n1-c1ccccc1 [CBK262842]
  viability at 28.5 h, 10 µM: 90.3%

## O=C(Cc1ccc(F)cc1F)N1CCC(Sc2ccc(-c3ccccc3)cc2)CC1 [CBK131950]
  viability at 28.5 h, 10 µM: 105%

## Cc1ccc(S(=O)(=O)Nc2ccnc(-c3ccc(CO)cc3)n2)cc1 [CBK067477]
  viability at 28.5 h, 10 µM: 90.4%

## O=C(Cn1ncc2cccn2c1=O)Nc1ccc(F)cc1 [CBK283672]
  viability at 28.5 h, 10 µM: 107%

## Cc1ccc2nc(O)c(CNc3ccc(-c4nc5cc(C)ccc5[nH]4)cc3)cc2c1 [CBK286161]
  viability at 28.5 h, 10 µM: 89.7%

## CCN(C(=O)CCc1nc2ccccc2n1C)C1CCN(C)CC1 [CBK281994]
  viability at 28.5 h, 10 µM: 89.9%

## COc1ccc(CN2CCC(O)CC2)c(OC)c1 [CBK261522]
  viability at 28.5 h, 10 µM: 95.9%

## O=C(O)Cn1nnc(-c2ccncc2)n1 [CBK269884]
  viability at 28.5 h, 10 µM: 86.6%

## COc1ccc(C(C)c2cc3c(cc2N)OCO3)cc1 (centres unmarked) [CBK200102T]
  viability at 28.5 h, 10 µM: 87.2%

## CCc1onc(C)c1NC(=O)NC1CC2(CCCC2)Oc2ccccc21 (centres unmarked) [CBK305890]
  viability at 28.5 h, 10 µM: 97.6%

## O=C(Nc1cc(N2CCNCC2)ncn1)c1ccccc1 [CBK004215T]
  viability at 28.5 h, 10 µM: 94.3%

## O=C(Cn1cccc(C(=O)NC2CCCC2)c1=O)NCC1(c2ccccc2)CCCC1 [CBK285975]
  viability at 28.5 h, 10 µM: 96.2%

## CCOc1cccc(-c2ccc(Nc3ccc(Oc4ccccc4)cc3)nc2)c1 [CBK037679]
  viability at 28.5 h, 10 µM: 94.4%

## Nc1ncc(-c2ccoc2)nc1-c1ccc(F)c(Cl)c1 [CBK063982]
  viability at 28.5 h, 10 µM: 93.9%

## O=C(Nc1ccc(S(=O)(=O)NCC2CCCO2)cc1)c1cc(-c2ccccc2)nc2ccccc12 (centres unmarked) [CBK267537]
  viability at 28.5 h, 10 µM: 84.3%

## CCOC(=O)C1CCCN(Cc2cc(F)cc(C(C)=O)c2O)C1 (centres unmarked) [CBK304020]
  viability at 28.5 h, 10 µM: 87.1%

## COC(=O)COc1ccc(S(=O)(=O)NCc2ccc3c(c2)OCO3)cc1C [CBK267172]
  viability at 28.5 h, 10 µM: 90.3%

## Nc1nc(-c2ccc3c(c2)CCC(=O)N3)cs1 [CBK086133]
  viability at 28.5 h, 10 µM: 80.8%

## Cc1cc(Cn2nnc(-c3ccc(Br)cc3)n2)cc(C)c1O [CBK291129]
  viability at 28.5 h, 10 µM: 119%

## Cn1ccc(C(=O)NC2CCN(c3ncccn3)CC2)cc1=O [CBK304280]
  viability at 28.5 h, 10 µM: 85.2%

## Cc1cccc(Cn2nc(C)c(NC(=O)COc3ccccc3)c2C)c1 [CBK270007]
  viability at 28.5 h, 10 µM: 93.5%

## Cc1nnc(SCC(=O)N2CCN(Cc3ccccc3)CC2)s1 [CBK267196]
  viability at 28.5 h, 10 µM: 96%

## CC(C)(N)CNC(=O)c1cc(-c2ccc(Cl)cc2)[nH]n1 [CBK116554]
  viability at 28.5 h, 10 µM: 91.5%

## CC1CCN(S(=O)(=O)c2ccc(Oc3ccc([N+](=O)[O-])cc3)cc2)CC1 [CBK261774]
  viability at 28.5 h, 10 µM: 98%

## Cc1ncccc1COC(=O)Nc1cnc2ccccc2c1 [CBK200128]
  viability at 28.5 h, 10 µM: 95.9%

## CN1CCC(N2CCN(C(=O)c3cncc(-c4ccc(C(=O)N5CCOCC5)cc4)c3)CC2)CC1 [CBK158600]
  viability at 28.5 h, 10 µM: 115%

## COc1ccc(Nc2cc(-c3cc(OC)c(OC)c(OC)c3)ncn2)c(OC)c1 [CBK090759]
  viability at 28.5 h, 10 µM: 95.4%

## COc1cc(NC(=O)CS(=O)(=O)c2ccccc2)c(OC)cc1Cl [CBK269471]
  viability at 28.5 h, 10 µM: 86.7%

## COc1ccc(C(C)C)cc1-c1cncc(N2CCCCC2CCO)n1 (centres unmarked) [CBK037897]
  viability at 28.5 h, 10 µM: 94.4%

## OC1(c2ccc(F)cc2)CCC2CN(CC3CC3)CC21 (centres unmarked) [CBK283105]
  viability at 28.5 h, 10 µM: 88.9%

## COc1ccc(Sc2nc3ccccc3nc2N2CCCC2)cc1OC [CBK093797]
  viability at 28.5 h, 10 µM: 101%

## O=C(CS(=O)(=O)c1cc2c(N3CCNCC3)nccc2s1)c1ccc(N2CCCC2)cc1 [CBK042232C]
  viability at 28.5 h, 10 µM: 81.2%

## Cc1ccc(C)c(C(=O)C2=C(O)C(=O)N(CCCN3CCOCC3)C2c2ccncc2)c1 (centres unmarked) [CBK265492]
  viability at 28.5 h, 10 µM: 103%

## CC(C)(C)c1cc(C(=O)CSc2nnc(Nc3ccccc3)n2-c2ccccc2)cc(C(C)(C)C)c1O [CBK261033]
  viability at 28.5 h, 10 µM: 94.1%

## CN(C)C(=O)N1CCC2(CC1)CC(=O)N(Cc1ccc(S(C)(=O)=O)cc1)C2=O [CBK155957]
  viability at 28.5 h, 10 µM: 104%

## O=c1c2sccc2[nH]c(=S)n1CCc1ccccc1 [CBK288486]
  viability at 28.5 h, 10 µM: 118%

## O=c1oc2ccccc2c2c1nnn2CCCN1CCOCC1 [CBK261470C]
  viability at 28.5 h, 10 µM: 95.2%

## O=C(Cc1ccccc1F)N1CCCC(c2cnccn2)C1 (centres unmarked) [CBK284601]
  viability at 28.5 h, 10 µM: 96.8%

## CC(C)=NNC(=N)Nc1ccccc1 [CBK021452]
  viability at 28.5 h, 10 µM: 90.4%

## c1ccc2c(CCN3CCC[C@@H]3CN3CCCC3)c[nH]c2c1 [CBK149104]
  viability at 28.5 h, 10 µM: 87.4%

## CCN(CC)CCNC(=O)c1cccc(Nc2cncc(-c3ccc(O)cc3)n2)c1 [CBK122671]
  viability at 28.5 h, 10 µM: 96.9%

## CCN(CC)C(=O)Cn1ncc2c3sc(C)cc3n(CC)c2c1=O [CBK284167]
  viability at 28.5 h, 10 µM: 99.3%

## CCCCc1ccc(-c2cnc3ncccc3c2N)cc1 [CBK083683]
  viability at 28.5 h, 10 µM: 96.2%

## O=C(c1cc2ncc(CCO)cn2n1)N1CCC(c2ccccc2Cl)C1 (centres unmarked) [CBK307266]
  viability at 28.5 h, 10 µM: 105%

## OC(COc1ccc(OC(F)(F)F)cc1)CN1CCN(c2nc3ccc(Cl)cc3s2)CC1 (centres unmarked) [CBK074639]
  viability at 28.5 h, 10 µM: 122%

## FC(F)(F)c1[nH]c2ncccc2c1CN1CCN2CCCCC2C1 (centres unmarked) [CBK285355]
  viability at 28.5 h, 10 µM: 80.9%

## CCC(c1ccc2c(c1)CCO2)N1CCN(Cc2nc(C)no2)CC1 (centres unmarked) [CBK304237]
  viability at 28.5 h, 10 µM: 90.3%

## O=C(NC(=S)Nc1ccc2[nH]c(=O)[nH]c2c1)c1ccc(F)cc1 [CBK263986]
  viability at 28.5 h, 10 µM: 89.3%

## COc1ccc(OC)c(N(CC(=O)N2CCN(C)CC2)S(=O)(=O)c2ccccc2)c1 [CBK264131]
  viability at 28.5 h, 10 µM: 98.8%

## CN1CCCN(c2cc(C(F)(F)F)c3scc(C(=O)NCc4cccc(F)c4F)c3n2)CC1 [CBK036386T]
  viability at 28.5 h, 10 µM: 87.9%

## CCN(CC(=O)NC(C)C)Cc1nc(-c2cccc(C(F)(F)F)c2)no1 [CBK306039]
  viability at 28.5 h, 10 µM: 88.6%

## CCCn1c(SCC(=O)NCc2ccc(OC)cc2)n[nH]c1=O [CBK297549]
  viability at 28.5 h, 10 µM: 90.2%

## N#CCCCCn1cc(NC(=O)NCCc2cccs2)cn1 [CBK044855]
  viability at 28.5 h, 10 µM: 100%

## c1coc(CCC2NCCn3cccc32)c1 (centres unmarked) [CBK023964F]
  viability at 28.5 h, 10 µM: 95.2%

## O=C(NC(Cc1ccsc1)c1ccccn1)c1ccc(=O)[nH]c1 (centres unmarked) [CBK285272]
  viability at 28.5 h, 10 µM: 106%

## COc1ccc(CN2CC[C@@H]3[C@H](C2)[C@@H](c2ccc(F)cc2)CN3C(=O)c2ccccc2)cc1 [CBK286290]
  viability at 28.5 h, 10 µM: 92.3%

## O=C(NCC(c1ccccc1)c1ccccc1)N1CCCCC1CO (centres unmarked) [CBK156186]
  viability at 28.5 h, 10 µM: 93.5%

## O=c1c2ccccc2nc2n1CCN(Cc1ccc(F)cc1)CC2 [CBK284814]
  viability at 28.5 h, 10 µM: 96.9%

## CCOc1cccc(-c2cncc(NCc3cccs3)n2)c1 [CBK066034]
  viability at 28.5 h, 10 µM: 104%

## N/C(Cc1ccc([N+](=O)[O-])cc1)=N\OC(=O)COc1cccc2ccccc12 [CBK262994]
  viability at 28.5 h, 10 µM: 92.8%

## CCN(CC)c1c(C)nc2ccc(C(=O)NCc3ccc(N(C)C)cc3)cn12 [CBK145961]
  viability at 28.5 h, 10 µM: 92.7%

## Cc1nc2ccccn2c1CC(=O)N1CCCC(c2ccc(Cc3cccc(F)c3)cn2)C1 (centres unmarked) [CBK286002]
  viability at 28.5 h, 10 µM: 91.3%

## CCCS(=O)(=O)n1c(=O)n(Cc2ccc(OC)cc2)c2ccccc21 [CBK106553]
  viability at 28.5 h, 10 µM: 99.7%

## c1cncc(C2N3CCC4(CC3)c3[nH]c5ccccc5c3CCN24)c1 (centres unmarked) [CBK284430]
  viability at 28.5 h, 10 µM: 92.8%

## COc1ccc(-c2noc(CNC(=O)Nc3ccc(F)cc3)n2)cc1OC [CBK269784]
  viability at 28.5 h, 10 µM: 97.2%

## CCOC(=O)CSc1c2cc3c(nc2nc(=O)n1Cc1ccccc1)CC(C)(C)OC3 [CBK018608]
  viability at 28.5 h, 10 µM: 94.3%

## O=C(Nc1cccc(-c2nc3ncccc3o2)c1)c1cccnc1Cl [CBK058695]
  viability at 28.5 h, 10 µM: 92%

## Cc1ccccc1NC(=O)CC(C(=O)O)N1CCOCC1 (centres unmarked) [CBK266969]
  viability at 28.5 h, 10 µM: 113%

## O=C(C1=C(O)C(=O)N(CCCn2ccnc2)C1c1ccncc1)c1ccccc1 (centres unmarked) [CBK264527]
  viability at 28.5 h, 10 µM: 91.6%

## NS(=O)(=O)c1ccc2c(c1)N(Cc1nc(-c3ccco3)no1)CC2 [CBK304291]
  viability at 28.5 h, 10 µM: 71.9%

## Oc1cccc2ccc(/C=N/N=C/c3ccc4cccc(O)c4n3)nc12 [CBK261127]
  viability at 28.5 h, 10 µM: 89.3%

## N#CC1=C(SCC(=O)Nc2cccc3ccccc23)NC(=O)CC1c1ccco1 (centres unmarked) [CBK265793]
  viability at 28.5 h, 10 µM: 101%

## CC1CN(C(=O)Nc2ccccc2F)CC(C)O1 (centres unmarked) [CBK004990]
  viability at 28.5 h, 10 µM: 89.9%

## Cc1cccc(-c2nnc(-c3ccc(NC(=O)CSCc4ccccc4)cc3)o2)c1 [CBK266775]
  viability at 28.5 h, 10 µM: 109%

## Cc1cc2[nH]c(=O)oc2cc1S(=O)(=O)NCCN1CCCCC1CO (centres unmarked) [CBK307307]
  viability at 28.5 h, 10 µM: 80.9%
